Where “and” joins values, the source holds several entries; their conditions need not be identical. Identical values can stand only once.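 How tested: cells in 96-well plates exposed to compound for 48 hours at five concentrations. GI50 is the concentration that inhibits growth by half. TGI marks complete inhibition of growth.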
Tests used:
Assay in all cases: NCI anticancer screen, dose series, 48 h
[1] = system: UACC-62 melanoma
[2] = system: HCT-116 colon
[3] = system: CCRF-CEM leukemia
[4] = system: TK-10 renal
[5] = system: SF-539 CNS
[6] = system: MCF7 breast
[7] = system: MDA-MB-231 breast
[8] = system: SK-MEL-28 melanoma
[9] = system: HCT-15 colon
[10] = system: IGROV1 ovarian
[11] = system: SNB-19 CNS
[12] = system: MALME-3M melanoma
[13] = system: MDA-MB-435
[14] = system: A549 NSCLC
[15] = system: COLO 205 colon
[16] = system: SW-620 colon

Row | Structure (SMILES) | TGI [1] [µM] | TGI [2] [µM] | TGI [3] [µM] | TGI [4] [µM] | TGI [5] [µM] | TGI [6] [µM] | TGI [7] [µM] | TGI [8] [µM] | TGI [9] [µM] | TGI [10] [µM] | TGI [11] [µM] | TGI [12] [µM] | TGI [13] [µM] | TGI [14] [µM] | TGI [15] [µM] | TGI [16] [µM] | GI50 [10]
1 | C=C(C)[C@H]1CC[C@@]23O[C@@H]2[C@@H](C[C@@]2(C)CC(=O)[C@H](CC(=O)C1)O2)OC(=O)[C@@]12CC[C@H](C(=C)C)CC(=O)C[C@H]4O[C@](C)(CC4=O)C[C@@H](OC3=O)[C@@H]1O2 | > 100 | > 100 | > 100 | > 100 | > 100 | > 100 | > 100 | > 100 | > 100 | > 100 | > 100 | > 100 | > 100 | > 100 | > 100 | – | –
2 | C=C(Cl)/C(=C\Cl)CCC(Cl)C(C)C (stereo unspecified) (tested in a mixture with another compound) | 25.3 | 29.8 | > 100 | 33.9 | 32.2 | 26.9 | 30.8 | 34.8 | – | 28.4 | 31.5 | 29.2 | 28.8 | > 100 | 54.6 | 7.5 | –
3 | CCCCCCCCOC(=O)C12Oc3ccc(-c4ccc5c(c4O)C(O)=C4C(=O)CC(C)C(O)C4(C(=O)OCCCCCCCC)O5)c(O)c3C(O)=C1C(=O)CC(C)C2O (stereo unspecified) | 99.3 | > 100 | 17.9 | > 100 | 19.7 | 44.9 | 59.7 | > 100 | > 100 | 61.3 | 36.8 | > 100 | > 100 | > 100 | 65.3 | > 100 | –
4 | CC(=O)OCC1(C)C(O)CCC2(C)C1CCC1CC3CC12CCC3(O)CO (stereo unspecified) | > 100 | > 100 | > 100 | > 100 | > 100 | > 100 | > 100 | > 100 | > 100 | > 100 | > 100 | > 100 | > 100 | > 100 | > 100 | > 100 | –
5 | C=C1N(S(=O)(=O)c2ccc(C)cc2)C(=O)OCC12CCCC2 | > 100 | > 100 | > 100 | > 100 | > 100 | > 100 | > 100 | > 100 | > 100 | > 100 | > 100 | > 100 | > 100 | > 100 | > 100 | > 100 | –
6 | CCCCN=NNc1cn(C2OC(CO)C(O)C2O)c(=O)[nH]c1=O (stereo unspecified) | > 100 | > 100 | > 100 | > 100 | > 100 | > 100 | > 100 | > 100 | > 100 | > 100 | > 100 | > 100 | > 100 | > 100 | > 100 | > 100 | –
7 | O=S1SC(=S)C2C=CC=NC21 (stereo unspecified) | 40.2 | 26.6 | > 100 | 32.2 | 33.3 | 38.4 | 42.3 | > 100 | 49.2 | 49.6 | 87.9 | 36.3 | > 100 | 60.5 | 40.3 | > 100 | –
8 | COc1ccc(N2C(=O)C(Cl)C2c2cc3cc(Br)ccc3nc2Cl)cc1 (stereo unspecified) | 8.86 | 9.51 | 14.7 | 15.5 | 10 | 13.5 | 9.1 | > 25 | 11 | 10.6 | > 25 | 10.1 | 10.7 | > 25 | 9.11 | 16.2 | –
9 | Cn1c(=O)c2ccccc2[n+]2c(-c3cccc([N+](=O)[O-])c3)csc12 | > 100 | > 100 | > 100 | > 100 | > 100 | > 100 | > 100 | > 100 | – | > 100 | > 100 | > 100 | > 100 | > 100 | > 100 | > 100 | –
10 | CCCC(=O)OCC1OC(n2cc(F)c(=O)[nH]c2=O)CC1O (stereo unspecified) | > 10 | > 10 | > 10 | > 10 | 0.247 | > 10 | > 10 | > 10 | > 10 | > 10 | > 10 | > 10 | > 10 | > 10 | > 10 | > 10 | –
11 | Cn1nnc2c(C(N)=S)ncn2c1=O | > 100 | > 100 | > 100 | > 100 | > 100 | > 100 | > 100 | > 100 | > 100 | > 100 | > 100 | > 100 | > 100 | > 100 | > 100 | > 100 | –
12 | CN1CCC2(c3ccccc3)CC(=O)/C(=C/c3ccc(Cl)c(Cl)c3)C1C2 (stereo unspecified) | 3 | > 21 | 5.15 | 11.7 | 4.35 | 17.3 | 3.21 | 5.59 | 4.59 | 4.19 | 5.32 | 24.4 | 5.14 | 10.9 | 4.2 | > 21.6 | –
13 | C/C(=C\COP(=O)(O)OP(=O)(O)O)CCCCCCOCc1ccccc1 | > 100 | > 100 | > 100 | > 100 | > 100 | > 100 | > 100 | > 100 | > 100 | > 100 | > 100 | > 100 | > 100 | > 100 | > 100 | > 100 | –
14 | CSC1=NN(C(C)=O)C(C(OC(C)=O)C(OC(C)=O)C(OC(C)=O)C(COC(C)=O)OC(C)=O)S1 (stereo unspecified) | > 100 | > 100 | > 100 | > 100 | > 100 | > 100 | > 100 | > 100 | > 100 | > 100 | > 100 | > 100 | > 100 | > 100 | > 100 | > 100 | –
15 | CC(=O)Nc1cc(Cl)cc(Cl)c1O | > 100 | > 100 | > 100 | > 100 | > 100 | > 100 | > 100 | > 100 | > 100 | > 100 | > 100 | > 100 | > 100 | > 100 | > 100 | > 100 | –
16 | CCCCC(=O)/C=c1/cc(C)[nH]c2cccc3cnn1c32 | > 100 | > 100 | > 100 | > 100 | > 100 | > 100 | > 100 | > 100 | > 100 | > 100 | > 100 | > 100 | > 100 | > 100 | > 100 | > 100 | –
17 | CC1(C)Cc2c(sc3[nH]c(=S)[nH]c(=S)c23)CS1 | 67.4 | > 100 | > 100 | > 100 | > 100 | > 100 | > 100 | > 100 | > 100 | > 100 | > 100 | 75.6 | > 100 | > 100 | > 100 | > 100 | –
18 | CCOC(=O)c1ncn(CCc2ccc(Cl)cc2)c1C | > 100 | > 100 | > 100 | > 100 | > 100 | > 100 | > 100 | > 100 | > 100 | > 100 | > 100 | > 100 | > 100 | > 100 | > 100 | > 100 | –
19 | COC(=O)c1cc(CC2Cc3cc4c(cc3C2=O)CCC4)cc2c1CCC2 (stereo unspecified) | > 100 | > 100 | > 100 | > 100 | > 100 | > 100 | > 100 | > 100 | > 100 | > 100 | > 100 | > 100 | > 100 | > 100 | > 100 | > 100 | –
20 | CCc1n[nH]c(=O)n1CC | > 100 | > 100 | > 100 | > 100 | > 100 | > 100 | > 100 | > 100 | > 100 | > 100 | > 100 | > 100 | > 100 | > 100 | > 100 | > 100 | –
21 | C/C=C/c1cc2c(cc1O)CC[C@@H]1[C@@H]2CC[C@]2(C)[C@@H](O)CC[C@@H]12 | 15.4 | 5.17 | 8.44 | 27.3 | 0.15 | 1.28 | 4.94 | 21.6 | 18 | 19 | 14.9 | 23.1 | 0.0948 | 15.9 | 24.4 | 19 | –
22 | O=C1C=C(c2ccccc2)OC1C1Sc2ccccc2NC1=O (stereo unspecified) | > 49.3 | 24.6 | > 24.4 | > 27.9 | > 100 | > 23.6 | > 57.1 | > 100 | > 100 | > 100 | > 82.8 | > 100 | > 100 | > 44.7 | 18.5 | > 100 | –
23 | C[C@@H]1S[C@H](c2c(F)cccc2Cl)n2c1nc1ccccc12 | 29.7 | 16.5 | 42.6 | > 100 | 28.9 | 81.8 | 27 | 26.5 | 19.3 | 59.5 | 88.9 | 30.6 | 25.1 | 61.3 | 23.6 | 27.2 | –
24 | CC(=O)OCC1OC(n2c(C)c(C(C)=O)c(-c3ccco3)c(C#N)c2=S)C(OC(C)=O)C(OC(C)=O)C1OC(C)=O (stereo unspecified) | > 100 | > 100 | > 100 | > 100 | > 100 | > 100 | > 100 | > 100 | > 100 | > 100 | > 100 | > 100 | > 100 | > 100 | > 100 | > 100 | > 100 µM and 43.6 µM
25 | COCn1cc(C2=C(C)C(=O)C(C)=C(C)C2=O)cn1 | > 100 | 36.7 | 60.8 | > 100 | > 100 | > 100 | 40.8 | > 100 | > 100 | > 100 | > 100 | > 100 | 33.9 | > 100 | > 100 | > 100 | –
26 | C=C1c2nc3ccccc3n2C=C(c2ccccc2)N1c1ccc(Cl)cc1 | > 100 | > 100 | > 100 | 57.2 | 20.9 | > 100 | 51.8 | > 100 | > 90.1 | > 89.5 | > 100 | 51.2 | > 100 | > 100 | > 100 | > 100 | –
27 | COC(=O)/C=C/CCC#Cc1ccccc1C#CCC/C=C/C(=O)OC | > 100 | > 100 | 24.3 | > 100 | 30.9 | > 100 | > 100 | > 100 | > 100 | 98.2 | > 100 | > 100 | > 100 | > 100 | 42.3 | > 100 | –
28 | Cc1[nH]c(C)c(CN(C)C)c1CN(C)C | > 100 | > 100 | > 100 | > 100 | > 100 | > 100 | > 100 | > 100 | > 100 | > 100 | > 100 | > 100 | > 100 | > 100 | > 100 | > 100 | –
